# Entries after “also recorded” stand apart in the source; their conditions may differ.
# Tests used:
# [1] = Blood nangibotide concentrations by LC-MS/MS (pharmacokinetics, phase IIa trial); format: in vivo, human
# Protocol: Blood nangibotide concentrations were determined by a validated LC-MS/MS method in accordance with European Medicines Agency (EMA) guidelines on bioanalytical method validation EMEA/CHMP/EWP/192217/2009, version EMA/275542/2014. The peptide was stabilized in the blood samples by treatment with a 10% trichloroacetic acid solution ([…], 4° C.) and centrifugation (3500 g, 10 min, 4° C.) to collect and freeze the supernatant before analysis. The lower limit of quantification (LLOQ) and upper limit of quantification (ULOQ) were 5 ng/mL and 1000 ng/mL respectively. Standard curve was linear over the range 5 ng/mL to 1000 ng/mL with a correlation coefficient greater than 0.995. Within-run and between-run precision and accuracy within +/−20% LLOQ and +/−15% (other levels up to ULOQ) were achieved during a 3-run validation for quality controls (QCs) for nangibotide.
# septic shock patients = assay: Phase IIa clinical trial with nangibotide in septic shock patients: mortality; format: in vivo, human; settings: for Sepsis-related mortality at 5 days, % / Sepsis-related mortality at 5 days, number of death / Sepsis-related mortality at 28 days, % / Sepsis-related mortality at 28 days, number of death / Sepsis-related mortality at 90 days, % / Sepsis-related mortality at 90 days, number of death: subgroup sTREM-1 at baseline above the median (433pg/mL); for All-cause mortality at 90 days, number of death / All-cause mortality at 5 days, % / All-cause mortality at 5 days, number of death / All-cause mortality at 28 days, % / All-cause mortality at 28 days, number of death / All-cause mortality at 90 days, %: whole population
# Protocol: This was a randomized, double-blind, two-stage, placebo-controlled study. As described in FIG. 7, the study was composed of 2 stages with a similar treatment regimen, in which 0.3, 1.0 or 3.0 mg/kg/h of nangibotide (corresponding to peptide LR12, having an amino acid sequence as set forth in SEQ ID NO: 9, also known as motrem) was tested versus placebo. All patients with a diagnosis of septic shock were considered for study participation. All potential study patients underwent standard care management procedures. Patients with evidence of septic shock according to the Sepsis-3 definition (Singer et al, JAMA 2016) were considered for inclusion (i.e., patients suffering from sepsis and having (i) persisting hypotension requiring vasopressors to maintain their mean arterial pressure ≥65 mm Hg and (ii) a serum lactate level >2 mmol/L (18 mg/dL) despite adequate volume resuscitation).
# After screening for eligibility, patients were randomized to one of the treatment arms. Then, they received either a 5 mg/kg loading dose of nangibotide over 15 minutes followed by a continuous intravenous (i.v.) infusion of nangibotide or a matching placebo on top of standard of care. Treatment with study drug was initiated as early as possible, but no later than 24 hours after the onset of septic shock, defined by the start of vasopressor therapy. Patients were treated until 12 (±2) hours after the resolution of their septic shock (defined as vasopressor withdrawal) with a maximum treatment duration of 5 days (120 hours).
# Adverse events (AEs) were coded using the MedDRA dictionary version 18.1. Treatment-emergent adverse events (TEAEs) were summarized and listed. Analysis was performed in 49 septic shock patients. The demographic and baseline characteristics were summarized in a descriptive fashion within each population: categorical variables were summarized by contingency tables (frequencies and percentages). sTREM-1 levels at day 1 were also described (mean, standard deviation, standard error, median, quartiles and range, minimum and maximum values). Mortality rates were reported by frequency and percentage. For continuous endpoints, i.e., the sequential organ failure assessment (SOFA), missing data were imputed using LOCF (Last Observation Carry-Forward). For time-to-event analyses, i.e., duration of invasive mechanical ventilation (IMV), duration of continuous renal replacement therapy (CRRT), survival, censored data techniques were utilized. In addition, a sensitivity analysis of time to event data (except survival) was performed using censoring at maximum limit for the corresponding observation period (i.e., either day 28 or day 90). […] The following comparisons were made: each nangibotide dose arm to placebo, all nangibotide doses combined versus placebo, and dose-response using an ordinal trend test. Exploratory composite endpoint: incidence (number and proportion) of patients alive at day 28 and free of vasopressor, free of IMV and free of CRRT were summarized by treatment and compared between treatments with a Fisher's exact test. For pharmacodynamic markers, log transformed data were represented as percentage change from baseline at day 5 or End of Infusion (EOI) if end of infusion was stopped before day 5. […] “All nangibotide” refers to analyses obtained by pooling data from 0.3, 1 and 3 mg/kg/h nangibotide-treated groups.
# [2] = 0.3 mg/kg/h (N = 6), 1st dose column
# [3] = 0.3 mg/kg/h (N = 6), 2nd dose column
# [4] = 0.3 mg/kg/h (N = 8), 3rd dose column
# [5] = 0.3 mg/kg/h (N = 12), 3rd dose column
# [6] = 0.3 mg/kg/h (N = 13), 1st dose column
# [7] = 1.0 mg/kg/h (N = 12), 2nd dose column
# [8] = pooled (N = 37), listed as nangibotide
substance,measurement,setting,value
nangibotide (LQEEDAGEYGCM; TLT-1 peptide),nangibotide blood concentration versus dose,"[1]; 0.3, 1.0, 3.0 mg/kg/h",proportional with the dose
same,clearance after the end of infusion,"[1]; human, in vivo",quickly cleared
same,pharmacokinetics / blood concentrations compared with healthy volunteers,[1]; in vivo,within the same range previously observed in healthy volunteers
same,pharmacokinetic behavior during intravenous infusion,"[1]; in vivo, iv",linear behavior
same,mortality vs. placebo,"septic shock patients; nangibotide group, whole study",consistent trend in the proportion of death patients in favor of nangibotide-treated groups; also recorded: non-significant lower mortality
same,"Sepsis-related mortality at 5 days, %",septic shock patients; [2],17%
same,"Sepsis-related mortality at 5 days, number of death",septic shock patients; [2],1
same,"Sepsis-related mortality at 28 days, %",septic shock patients; [2],17%
same,"Sepsis-related mortality at 28 days, number of death",septic shock patients; [2],1
same,"Sepsis-related mortality at 90 days, %",septic shock patients; [2],17%
same,"Sepsis-related mortality at 90 days, number of death",septic shock patients; [2],1
same,"Sepsis-related mortality at 5 days, %",septic shock patients; [3],17%
same,"Sepsis-related mortality at 5 days, number of death",septic shock patients; [3],1
same,"Sepsis-related mortality at 28 days, %",septic shock patients; [3],17%
same,"Sepsis-related mortality at 28 days, number of death",septic shock patients; [3],1
same,"Sepsis-related mortality at 90 days, %",septic shock patients; [3],17%
same,"Sepsis-related mortality at 90 days, number of death",septic shock patients; [3],1
same,"Sepsis-related mortality at 5 days, number of death",septic shock patients; [4],2
same,"Sepsis-related mortality at 28 days, number of death",septic shock patients; [4],2
same,"Sepsis-related mortality at 90 days, number of death",septic shock patients; [4],2
same,"Sepsis-related mortality at 5 days, %",septic shock patients; pooled (N = 20),20%
same,"Sepsis-related mortality at 5 days, number of death",septic shock patients; pooled (N = 20),4
same,"Sepsis-related mortality at 28 days, %",septic shock patients; pooled (N = 20),20%
same,"Sepsis-related mortality at 28 days, number of death",septic shock patients; pooled (N = 20),4
same,"Sepsis-related mortality at 90 days, %",septic shock patients; pooled (N = 20),20%
same,"Sepsis-related mortality at 90 days, number of death",septic shock patients; pooled (N = 20),4
same,"All-cause mortality at 90 days, number of death","septic shock patients; 0.3 mg/kg/h (N = 12), 2nd dose column",2
same,"All-cause mortality at 5 days, %",septic shock patients; [5],17%
same,"All-cause mortality at 5 days, number of death",septic shock patients; [5],2
same,"All-cause mortality at 28 days, %",septic shock patients; [5],25%
same,"All-cause mortality at 28 days, number of death",septic shock patients; [5],3
same,"All-cause mortality at 90 days, %",septic shock patients; [5],33%
same,"All-cause mortality at 90 days, number of death",septic shock patients; [5],4
same,"All-cause mortality at 5 days, %",septic shock patients; [6],7.7%
same,"All-cause mortality at 5 days, number of death",septic shock patients; [6],1
same,"All-cause mortality at 28 days, %",septic shock patients; [6],15%
same,"All-cause mortality at 28 days, number of death",septic shock patients; [6],2
same,"All-cause mortality at 90 days, %",septic shock patients; [6],32%
same,"All-cause mortality at 90 days, number of death",septic shock patients; [6],4
same,"All-cause mortality at 5 days, %",septic shock patients; [7],8.3%
same,"All-cause mortality at 5 days, number of death",septic shock patients; [7],1
same,"All-cause mortality at 28 days, %",septic shock patients; [7],8.3%
same,"All-cause mortality at 28 days, number of death",septic shock patients; [7],1
same,"All-cause mortality at 90 days, %",septic shock patients; [7],17%
same,"All-cause mortality at 5 days, %",septic shock patients; pooled (N = 37),11%
same,"All-cause mortality at 5 days, number of death",septic shock patients; pooled (N = 37),4
same,"All-cause mortality at 28 days, %",septic shock patients; pooled (N = 37),16%
same,"All-cause mortality at 28 days, number of death",septic shock patients; pooled (N = 37),6
same,"All-cause mortality at 90 days, %",septic shock patients; pooled (N = 37),27%
same,"All-cause mortality at 90 days, number of death",septic shock patients; pooled (N = 37),10
same,"All-cause mortality at 28 days, %",septic shock patients; [8],14%
same,"All-cause mortality at 28 days, number of death",septic shock patients; [8],5

# Reference: patent US12364733B1, “Method for treating septic shock” (Inotrem, priority 2018, dated 2025)
